Common to all, as to assay type: physicochemical
Data set [1] in a line: Visually observed gelation time / physical state of peptide and peptide:GAG samples. Conditions: for Time to gel: peptide concentration = 20 mg/ml, typical gelation times. How it is done:
Therefore the GAGs must be directly interacting with the peptides via physical bonds to enhance their gelation.
c.) 200 P11-12 1-9 days Wavenumbers (cm-1) Wavenumbers (cm-1) […]
Figure S1. […]
Peptide GAG ratio Time to gel ( peptide concentration = 20 mg/ml)
P11-4 1:2 Seconds-minutes
Table S1. Typical gelation times in 20mg/ml samples
(also on this page, place not known: (cm -1 ) (cm -1 ) (cm -1 ) Estimated monomer (µM) Aromatic 0 / µM Apparent critical relative integral 0.125 mM TMSP concentration to concentration Seconds-minutesP11-4 SecondsP11-8 SecondsP11-9 P11-12) […]
Figure S3. From left to right P11-12, P11-12:PEG (Mw 10k), P11-12:PEG (Mw 100k). 130 mM NaCl in D2O, PEG added at same wt% as 1:10
Pep:GAG ratio. All samples = liquid

The nature of data set [2]: Transmission electron microscopy of peptide and peptide:GAG aggregates. The following applies: TEM, uranyl acetate negative stain; for Twist pitch: peptide alone, 130 mM NaCl in D2O. From the text: We observe that incorporation of GAGs into peptide hydrogels also modifies their microscopic properties. Transmission electron microscopy images reveal pronounced differences in the fibril morphologies (Fig. 3a and Fig. S2, S3, ESI ^‡). Broadly speaking, the changes in gel structure between peptide-only and peptide:GAG gels are very similar. In peptide-only gels, the fibril widths are of the order of 10 nm. This compares to peptide:GAG gels where the fibrils align and cluster together with bundle diameters of the order of 100 nm. […] Transmission electron microscopy of uranyl acetate stained samples were carried out on a Philips CM10/Jeol JEM1400 electron microscope operating at 80/120 kV. Fourier transform infra-red spectra were acquired with a Thermo Scientific Nicolet 6700 FTIR spectrometer. […] TFA has a FTIR band located at 1673 cm-1 and peptides with greater number of arginine and ornithine residues will contain more TFA and therefore a large TFA peak in the FTIR spectra. Transmission electron microscopy, TEM P11-9 and P11-9:GAG samples were prepared in DPBS (Dubeccos phosphate buffered saline, Sigma Aldrich), solution containing 0.04% NaN3, (Sodium azide, Sigma Aldrich, 99%)to prevent bacterial growth. The samples were vortexed for 20 seconds, and then sonicated for 30 minutes. Solution pH was measured and adjusted to 7.4 ± 0.3. Any adjustment of pH, if necessary, was made with μL volumes of 0.1 to 1 mol dm-3 HCL (Hydrochloric acid, Fisher Scientific, analytical reagent grade, 37% wt diluted with purified water), and/or 0.1 to 1 mol dm-3 NaOH (Sodium hydroxide pellets, Fisher […], analytical grade, dissolved in and diluted with purified water). Solution vials were closed, sealed with PTFE tape, and then warmed to approximately 80 °C to maximise peptide solubility. Following warming GAG powder was added to the peptide solutions and the mixture was vortexed to ensure complete mixing The resulting gels were left to equilibrate for approximately four and a half months. For P11-4, P11-8 and P11-12, samples with and without GAG prepared for FTIR were used, these were left to equillibriate for 4 days prior to TEM grid preparation. The gels were then diluted (20 μl of sample in 60 μl D2O) minutes prior to addition to the TEM grids. Glow discharged carbon film coated copper TEM grids (Agar Scientific) were touched onto the peptide and peptide:gag solutions for one minute. The grid was air-dried and then negatively stained with uranyl acetate solution (2% w/v) for 20 seconds and air-dried. TEM images for P11-4, P11-8 and P11-12, samples with and without GAG were obtained using a Jeol JEM1400 transmission electron microscope operating […] voltage. TEM images of […] with and without GAG were obtained using a Philips CM10 electron microscope operating at 80 kV accelerating voltage. Rheometry Peptide and peptide:GAG samples were prepared in DPBS (Dubeccos phosphate buffered saline, Sigma Aldrich), solution containing 0.04% NaN3 (sodium azide, Sigma Aldrich, 99%). The samples were vortexed for 20 seconds, and then sonicated for 30 minutes. Solution pH was measured and adjusted to 7.4 ± 0.3. Any adjustment of pH, if necessary, was made with μL volumes of 0.1 to 1 mol dm-3 HCL (hydrochloric acid, Fisher Scientific, analytical reagent grade, 37% wt diluted with purified water), and/or 0.1 to 1 mol dm-3 NaOH (Sodium hydroxide pellets, Fisher […], analytical grade, dissolved in and diluted with purified water). Solution vials were closed, sealed with PTFE tape, and then warmed to approximately 80 °C to maximise peptide solubility. Following warming GAG powder was added to the peptide solutions and the mixture was vortexed to ensure complete mixing The resulting gels were left to equilibrate at room temperature (P11-4 20 days, P11-8 1.5 months, P11-9 one month and P11-12 two months). Rheometry measurements used a Malvern Kinexus Pro rheometer with a cone-plate geometry (cone angle: 1O, diameter: 50 mm, gap: 0.033 mm). […]

Data set [3] can be described thus: 1H NMR of free peptide monomer concentration (apparent critical aggregation concentration c*, equilibration). Conditions: 1H NMR aromatic region integral relative to TMSP, 130 mM NaCl in D2O, pD 7.4, room temperature. How it is done:
NMR characterisation of the free peptide monomer concentration that coexists in equilibrium with the peptide fibrils (and therefore the apparent c*) is found to decrease in the presence of GAG (Fig. 2a and Fig. S1a, ESI ^‡).
The thermodynamics are affected by the presence of GAG.
^1H Nuclear Magnetic Resonance spectra were recorded on a Bruker DPX300 300 MHz spectrometer. Transmission electron microscopy of uranyl acetate stained samples were carried out on a Philips CM10/Jeol JEM1400 electron microscope operating at 80/120 kV. Fourier transform infra-red spectra were acquired with a Thermo Scientific Nicolet 6700 FTIR spectrometer. Rheological measurements used a Malvern Kinexus Pro rheometer with a cone-plate geometry. […]
Peptide and peptide:GAG samples were prepared directly in D2O (Deuterium Oxide, Sigma Aldrich 99.9% D) containing 130 mM NaCl (Sodium Chloride, Fisher Scientific, analytical grade) and […] TMSP (deuterated Sodium 3-(trimethylsilyl)propionate-2,2,3,3-d4, Cambridge Isoptope Labortatories, chemical shift 0 ppm) an internal reference standard. […] Solution pD was measured and adjusted to 7.4 ± 0.3 using the relation pD = pH + 0.4.[1] […]
NMR data were acquired at room temperature with a Bruker DPX 300 spectrometer, operating at 300 MHz (5 mm probe, spectral width 5995 Hz). A presaturation program was used to minimize the water peak, and 1024 scans were measured per spectrum. […]

Where [4] appears, read: Control (peptide only, no GAG), visually observed, room temperature.
The mark [5] stands for this setting: peptide : GAG ratio 1:2, visually observed, room temperature.
[6] abbreviates: peptide : GAG ratio 1:10, visually observed, room temperature.
The mark [7] stands for this setting: peptide alone or peptide:GAG 1:10.
The mark [8] stands for this setting: peptide alone or peptide:GAG 1:10, 20 mg/ml, 130 mM NaCl in D2O (P11-9 samples in DPBS).

Regarding Ac-QQRFEWEFEQQ-NH2 [P11-4], the Time to gel entry was “Minutes -hours” in data set [1] (setting [4]), “Seconds-minutes” in data set [1] (setting [5]) and “Seconds” in data set [1] (setting [6]). The Morphology entry in data set [2] (setting [7]) was “Twisted fibrils”. This substance showed a Fibril width in data set [2] (setting [8]) of 14.6 nm. Further, the Twist pitch in data set [2] (20 mg/ml) was 76.6 ± 17.1 nm.
On to Ac-SSRFEWEFESS-NH2 [P11-9], for which the Time to gel result in data set [1] (setting [4]) is “Minutes”; in data set [1] (setting [5]) it was “Seconds”; in data set [1] (setting [6]), “Seconds”. The Morphology entry in data set [2] (setting [7]) was “Ribbons”. The substance further returned a Ribbon width in data set [2] (setting [8]) of 4 ± 1 nm.
Regarding CH3CO-Q-Q-R-F-O-W-O-F-E-Q-Q-NH2 [P11-8], the Time to gel result is “days” in data set [1] (setting [4]), “seconds” in data set [1] (setting [5]) and “Seconds” in data set [1] (setting [6]). Moreover, the Morphology entry in data set [2] (setting [7]) is “Twisted fibrils”. The Fibril width in data set [2] (setting [8]) was 13.2 nm. In addition, in data set [2] (setting [8]), the Ribbon width worked out at 5.06 nm. In data set [2] (20 mg/ml), this substance returned a Twist pitch of 135.2 ± 22.1 nm.
With “CH3CO-S-S-R-F-O-W-O-F-E-S-S-NH2 [P11-12]”, the “Physical state of sample (gel or liquid)” value in data set [1] (130 mM NaCl in D2O, PEG added at same wt% as 1:10 Pep:GAG ratio) was “liquid”. The Time to gel entry in data set [1] (setting [4]) was “Minutes”; in data set [1] (setting [5]), “Seconds”; in data set [1] (setting [6]), “Seconds”; in data set [1] (peptide : GAG ratio 1:50, visually observed, room temperature) it was “Spontaneous”; in data set [1] (peptide : GAG ratio 1:100, visually observed, room temperature), “Spontaneous”. The Gelation time result in data set [1] (when higher GAG ratios were used, visually observed, room temperature) is reported as “instantaneously”. Also, in data set [2] (setting [7]), the Morphology result is “Twisted fibrils and ribbons”. Moreover, in data set [2] (setting [8]), the Fibril width is recorded as 10.1 nm. In addition, the “Large loose bundle /fibre width” value in data set [2] (setting [8]) is given as 43.7 ± 11.5 nm. In addition, the Ribbon width in data set [2] (setting [8]) amounted to 5.0 ± 0.8 nm. For the same substance, in data set [2] (20 mg/ml), the Twist pitch came to 114.3 ± 10.3 nm. The “Time for the monomer concentration to equilibrate” value in data set [3] (GAG present at peptide : GAG ratio of 1 : 5) was “less than a week”; in data set [3] (peptide only), “within two months”.

Values taken from paper PMC4920072, “Peptide:glycosaminoglycan hybrid hydrogels as an injectable intervention for spinal disc degeneration” (Journal of Materials Chemistry. B, Materials for Biology …, 2016).
